Laboratory results reported in US6617282B2, “Processes for preparing 3-phenyl-2,4(1H, 3H)-pyrimidinediones” (Ishihara Sangyo Kaisha, Ltd., priority 2001, dated 2003).

Tests used:
Assay in all cases: PRE emergent soil treatment, weed control
Format in all cases: in vivo
Conditions in all cases: applied to soil, 250 g/ha
[1] = system: lambsquarters (Chenopodium album)
Description: (§1) Compound B was applied to soil as a PRE emergent treatment at the rate of 250 g/ha. The broadleaf weed species velvetleaf (Abutilon theophrasti), redroot pigweed (Amaranthus retroflexus) and lambsquarters (Chenopodium album) were all 100% controlled by this treatment.

[2] = system: redroot pigweed (Amaranthus retroflexus)
Description: as §1

[3] = system: velvetleaf (Abutilon theophrasti)
Description: as §1

Measured: controlled (weed control)

CC(C)=Nn1c(C(F)(F)F)cc(=O)n(-c2cc(Oc3ccccc3[N+](=O)[O-])c(Cl)cc2F)c1=O [Compound B, 3-[4-hloro-2-fluoro-5-(2-nitrophenoxy)phenyl]-1-[(1-methylethylidene)amino]-6-(trifluoromethyl)-2,4(1H,3H)-pyrimidinedione]
100%: all assays above
